From patent US20160038468A1 (priority 2013, published 2016)
Converted amounts (≈) assume the structure as drawn. Read-outs that look alike come from different tables or passages of the source.

Columns and labels:
Format in all cases: cell-based
Prevotella bivia = test: Agar dilution MIC (CLSI), Prevotella bivia vaginal isolates; conditions: for MIC: read-out: Minimal Inhibitory Concentration (MIC)
Mobiluncus spp = test: Agar dilution MIC (CLSI), Mobiluncus spp vaginal isolate; conditions: read-out: Minimal Inhibitory Concentration (MIC)
Prevotella amnii = test: Agar dilution MIC (CLSI), Prevotella amnii vaginal isolates; conditions: for Number of strains with indicated MIC: 33 samples; for MIC: read-out: Minimal Inhibitory Concentration (MIC)
Finegoldia magna = test: Agar dilution MIC (CLSI), Finegoldia magna vaginal isolates; conditions: for MIC: read-out: Minimal Inhibitory Concentration (MIC); for Number of strains with indicated MIC: 20 samples
M. curtisii = test: Agar dilution MIC (CLSI), M. curtisii vaginal isolates; conditions: for Number of strains with indicated MIC: 14 samples

## CO[C@H]1/C=C/O[C@@]2(C)Oc3c(C)c(O)c4c(O)c(c5c(nc6cc(C)ccn65)c4c3C2=O)NC(=O)/C(C)=C\C=C\[C@H](C)[C@H](O)[C@@H](C)[C@@H](O)[C@@H](C)[C@H](OC(C)=O)[C@@H]1C [Rifaximin]
Prevotella bivia; Prevotella bivia, isolate 601389 10
  MIC: 0.25 mg/L (≈ 0.318 µM)
Prevotella bivia; Prevotella bivia, isolate 601389 J
  MIC: 0.25 mg/L (≈ 0.318 µM)
Prevotella bivia; Prevotella bivia, isolate 601392 14
  MIC: 0.125 mg/L (≈ 0.159 µM)
Prevotella bivia; Prevotella bivia, isolate 601409 V
  MIC: 0.25 mg/L (≈ 0.318 µM)
Prevotella bivia; Prevotella bivia, isolate 601410 12
  MIC: 0.25 mg/L (≈ 0.318 µM)
Prevotella bivia; Prevotella bivia, isolate 601429 1
  MIC: 0.25 mg/L (≈ 0.318 µM)
Prevotella bivia; Prevotella bivia, isolate 601433 19
  MIC: 0.25 mg/L (≈ 0.318 µM)
Prevotella bivia; Prevotella bivia, isolate 601449 E
  MIC: 0.5 mg/L (≈ 0.636 µM)
Prevotella bivia; Prevotella bivia, isolate 601453 A
  MIC: 0.25 mg/L (≈ 0.318 µM)
Prevotella bivia; Prevotella bivia, isolate 601455 D1
  MIC: 0.25 mg/L (≈ 0.318 µM)
Prevotella bivia; Prevotella bivia, isolate 601458 16
  MIC: 0.25 mg/L (≈ 0.318 µM)
Prevotella bivia; Prevotella bivia, # tested 34
  MIC50: 0.25 mg/L (≈ 0.318 µM)
  MIC90: 0.5 mg/L (≈ 0.636 µM)
Prevotella bivia; number (%) of isolates, # tested 34
  Susceptible: 34 (100) μg/ml
Mobiluncus spp
  MIC: 0.03 mg/L (≈ 0.0382 µM)
Prevotella amnii; # tested 33
  MIC Range: 0.015 to 0.03 mg/L
Prevotella amnii; MIC 0.015 μg/ml
  Number of strains with indicated MIC: 19
Prevotella amnii; MIC 0.03 μg/ml
  Number of strains with indicated MIC: 14
Prevotella amnii; Prevotella amnii, isolate 601203 4
  MIC: 0.015 mg/L (≈ 0.0191 µM)
Prevotella amnii; Prevotella amnii, isolate 601256 11
  MIC: 0.03 mg/L (≈ 0.0382 µM)
Prevotella amnii; Prevotella amnii, isolate 601258 25
  MIC: 0.015 mg/L (≈ 0.0191 µM)
Prevotella amnii; Prevotella amnii, isolate 601261 E
  MIC: 0.015 mg/L (≈ 0.0191 µM)
Prevotella amnii; Prevotella amnii, isolate 601266 20
  MIC: 0.03 mg/L (≈ 0.0382 µM)
Prevotella amnii; Prevotella amnii, isolate 601278 10
  MIC: 0.015 mg/L (≈ 0.0191 µM)
Prevotella amnii; Prevotella amnii, isolate 601287 HH
  MIC: 0.015 mg/L (≈ 0.0191 µM)
Prevotella amnii; Prevotella amnii, isolate 601291 41
  MIC: 0.015 mg/L (≈ 0.0191 µM)
Prevotella amnii; Prevotella amnii, isolate 601293 29
  MIC: 0.03 mg/L (≈ 0.0382 µM)
Prevotella amnii; Prevotella amnii, isolate 601305 A
  MIC: 0.03 mg/L (≈ 0.0382 µM)
Prevotella amnii; Prevotella amnii, isolate 601311 K
  MIC: 0.03 mg/L (≈ 0.0382 µM)
Prevotella amnii; Prevotella amnii, isolate 601314 19
  MIC: 0.03 mg/L (≈ 0.0382 µM)
Prevotella amnii; Prevotella amnii, isolate 601318 G
  MIC: 0.03 mg/L (≈ 0.0382 µM)
Prevotella amnii; Prevotella amnii, isolate 601336 33
  MIC: 0.015 mg/L (≈ 0.0191 µM)
Prevotella amnii; Prevotella amnii, isolate 601340 37
  MIC: 0.015 mg/L (≈ 0.0191 µM)
Prevotella amnii; Prevotella amnii, isolate 601341 H
  MIC: 0.015 mg/L (≈ 0.0191 µM)
Prevotella amnii; Prevotella amnii, isolate 601350 A
  MIC: 0.015 mg/L (≈ 0.0191 µM)
Prevotella amnii; Prevotella amnii, isolate 601365 6
  MIC: 0.015 mg/L (≈ 0.0191 µM)
Prevotella amnii; Prevotella amnii, isolate 601368 24
  MIC: 0.015 mg/L (≈ 0.0191 µM)
Prevotella amnii; Prevotella amnii, isolate 601369 13
  MIC: 0.03 mg/L (≈ 0.0382 µM)
Prevotella amnii; Prevotella amnii, isolate 601375 L
  MIC: 0.015 mg/L (≈ 0.0191 µM)
Prevotella amnii; Prevotella amnii, isolate 601377 9
  MIC: 0.03 mg/L (≈ 0.0382 µM)
Prevotella amnii; Prevotella amnii, isolate 601379 24
  MIC: 0.03 mg/L (≈ 0.0382 µM)
Prevotella amnii; Prevotella amnii, isolate 601388 G
  MIC: 0.03 mg/L (≈ 0.0382 µM)
Prevotella amnii; Prevotella amnii, isolate 601399 10
  MIC: 0.015 mg/L (≈ 0.0191 µM)
Prevotella amnii; Prevotella amnii, isolate 601405 A
  MIC: 0.015 mg/L (≈ 0.0191 µM)
Prevotella amnii; Prevotella amnii, isolate 601411 L
  MIC: 0.03 mg/L (≈ 0.0382 µM)
Prevotella amnii; Prevotella amnii, isolate 601413 10
  MIC: 0.015 mg/L (≈ 0.0191 µM)
Prevotella amnii; Prevotella amnii, isolate 601418 27
  MIC: 0.03 mg/L (≈ 0.0382 µM)
Prevotella amnii; Prevotella amnii, isolate 601426 A
  MIC: 0.015 mg/L (≈ 0.0191 µM)
Prevotella amnii; Prevotella amnii, isolate 601430 14
  MIC: 0.015 mg/L (≈ 0.0191 µM)
Prevotella amnii; Prevotella amnii, isolate 601434 13
  MIC: 0.015 mg/L (≈ 0.0191 µM)
Prevotella amnii; Prevotella amnii, isolate 601458 13
  MIC: 0.03 mg/L (≈ 0.0382 µM)
Prevotella amnii; Prevotella amnii, # tested 33
  MIC50: 0.015 mg/L (≈ 0.0191 µM)
  MIC90: 0.03 mg/L (≈ 0.0382 µM)
Finegoldia magna; # tested 20
  MIC Range: 0.125 to 16 mg/L
Finegoldia magna; Finegoldia magna, isolate 301303V D
  MIC: 4 mg/L (≈ 5.09 µM)
Finegoldia magna; Finegoldia magna, isolate 601205V 39
  MIC: 4 mg/L (≈ 5.09 µM)
Finegoldia magna; Finegoldia magna, isolate 601214V F
  MIC: 8 mg/L (≈ 10.2 µM)
Finegoldia magna; Finegoldia magna, isolate 601275V c
  MIC: 0.125 mg/L (≈ 0.159 µM)
Finegoldia magna; Finegoldia magna, isolate 601276V 23
  MIC: 4 mg/L (≈ 5.09 µM)
Finegoldia magna; Finegoldia magna, isolate 601283V 14
  MIC: 4 mg/L (≈ 5.09 µM)
Finegoldia magna; Finegoldia magna, isolate 601293V 27
  MIC: 4 mg/L (≈ 5.09 µM)
Finegoldia magna; Finegoldia magna, isolate 601295V 25
  MIC: 4 mg/L (≈ 5.09 µM)
Finegoldia magna; Finegoldia magna, isolate 601298V 30
  MIC: 4 mg/L (≈ 5.09 µM)
Finegoldia magna; Finegoldia magna, isolate 601308V 24
  MIC: 2 mg/L (≈ 2.54 µM)
Finegoldia magna; Finegoldia magna, isolate 601315V 17
  MIC: 8 mg/L (≈ 10.2 µM)
Finegoldia magna; Finegoldia magna, isolate 601315V 17A
  MIC: 8 mg/L (≈ 10.2 µM)
Finegoldia magna; Finegoldia magna, isolate 601320V 24
  MIC: 16 mg/L (≈ 20.4 µM)
Finegoldia magna; Finegoldia magna, isolate 601323V K
  MIC: 4 mg/L (≈ 5.09 µM)
Finegoldia magna; Finegoldia magna, isolate 601330V c
  MIC: 16 mg/L (≈ 20.4 µM)
Finegoldia magna; Finegoldia magna, isolate 601335V c1
  MIC: 4 mg/L (≈ 5.09 µM)
Finegoldia magna; Finegoldia magna, isolate 601340V 27
  MIC: 8 mg/L (≈ 10.2 µM)
Finegoldia magna; Finegoldia magna, isolate 601359V c
  MIC: 2 mg/L (≈ 2.54 µM)
Finegoldia magna; Finegoldia magna, isolate 601363V 6
  MIC: 0.25 mg/L (≈ 0.318 µM)
Finegoldia magna; Finegoldia magna, isolate 601367V c
  MIC: 16 mg/L (≈ 20.4 µM)
Finegoldia magna; Finegoldia magna, # tested 20
  MIC50: 4 mg/L (≈ 5.09 µM)
  MIC90: 16 mg/L (≈ 20.4 µM)
Finegoldia magna; MIC 8 μg/ml
  Number of strains with indicated MIC: 4
Finegoldia magna; MIC 16 μg/ml
  Number of strains with indicated MIC: 3
Finegoldia magna; MIC […]
  Number of strains with indicated MIC: 1
Finegoldia magna; number (%) of isolates, # tested 20
  Susceptible: 20 (100) μg/ml
M. curtisii; MIC 0.015 μg/ml
  Number of strains with indicated MIC: 12
M. curtisii; MIC 0.03 μg/ml
  Number of strains with indicated MIC: 2
M. curtisii; individual isolates recovered from the vagina 2009-2012, one line per isolate (id in c0/c1 of the row), read-out: Minimal Inhibitory Concentration (MIC)
  MIC: 0.015 mg/L (≈ 0.0191 µM)
